Legend:
[1] = biological target: Hormonally up-regulated neu tumor-associated kinase (Homo sapiens) (UniProt P57058); conditions: Compound concentration 1000.0 nM
[2] = biological target: Tyrosine-protein kinase JAK3 (Homo sapiens) (UniProt P52333); conditions: Compound concentration 1000.0 nM
[3] = biological target: Serine/threonine-protein kinase Nek1 (Homo sapiens) (UniProt Q96PY6); conditions: Compound concentration 1000.0 nM
[4] = biological target: Vascular endothelial growth factor receptor 2 (Homo sapiens) (UniProt P35968); conditions: Compound concentration 1000.0 nM
[5] = biological target: Insulin receptor (Homo sapiens, UniProt P06213); conditions: Compound concentration 1000.0 nM
[6] = biological target: Muscarinic acetylcholine receptor M3 (Homo sapiens) (UniProt P20309); conditions: Compound concentration 10.0 uM
[7] = biological target: Cyclin-dependent kinase 17 (Homo sapiens) (UniProt Q00537); conditions: Compound concentration 1000.0 nM
[8] = tested on: Phosphatidylinositol 4,5-bisphosphate 3-kinase catalytic subunit alpha isoform (Homo sapiens), P42336 [E545A]; conditions: Compound concentration 1000.0 nM
[9] = biological target: Receptor-type tyrosine-protein kinase FLT3 (Homo sapiens) (UniProt P36888); conditions: Compound concentration 1000.0 nM
[10] = biological target: Serine/threonine-protein kinase TAO2 (Homo sapiens) (UniProt Q9UL54); conditions: Compound concentration 1000.0 nM
[11] = biological target: Histamine H1 receptor (Homo sapiens) (UniProt P35367); conditions: Compound concentration 10.0 uM
[12] = tested on: Phosphatidylinositol 4,5-bisphosphate 3-kinase catalytic subunit alpha isoform (Homo sapiens), P42336 [E542K]; conditions: Compound concentration 1000.0 nM
[13] = biological target: Interleukin-1 receptor-associated kinase 1 (Homo sapiens) (UniProt P51617); conditions: Compound concentration 1000.0 nM
[14] = biological target: Ribosomal protein S6 kinase alpha-1 (Homo sapiens) (UniProt Q15418); conditions: Compound concentration 1000.0 nM
[15] = biological target: Serine/threonine-protein kinase TBK1 (Homo sapiens) (UniProt Q9UHD2); conditions: Compound concentration 1000.0 nM
[16] = biological target: Leucine-rich repeat serine/threonine-protein kinase 2 (Homo sapiens) (UniProt Q5S007); conditions: Compound concentration 1000.0 nM
Chain of Leucine-rich repeat serine/threonine-protein kinase 2 (Homo sapiens) (Q5S007 whole entry): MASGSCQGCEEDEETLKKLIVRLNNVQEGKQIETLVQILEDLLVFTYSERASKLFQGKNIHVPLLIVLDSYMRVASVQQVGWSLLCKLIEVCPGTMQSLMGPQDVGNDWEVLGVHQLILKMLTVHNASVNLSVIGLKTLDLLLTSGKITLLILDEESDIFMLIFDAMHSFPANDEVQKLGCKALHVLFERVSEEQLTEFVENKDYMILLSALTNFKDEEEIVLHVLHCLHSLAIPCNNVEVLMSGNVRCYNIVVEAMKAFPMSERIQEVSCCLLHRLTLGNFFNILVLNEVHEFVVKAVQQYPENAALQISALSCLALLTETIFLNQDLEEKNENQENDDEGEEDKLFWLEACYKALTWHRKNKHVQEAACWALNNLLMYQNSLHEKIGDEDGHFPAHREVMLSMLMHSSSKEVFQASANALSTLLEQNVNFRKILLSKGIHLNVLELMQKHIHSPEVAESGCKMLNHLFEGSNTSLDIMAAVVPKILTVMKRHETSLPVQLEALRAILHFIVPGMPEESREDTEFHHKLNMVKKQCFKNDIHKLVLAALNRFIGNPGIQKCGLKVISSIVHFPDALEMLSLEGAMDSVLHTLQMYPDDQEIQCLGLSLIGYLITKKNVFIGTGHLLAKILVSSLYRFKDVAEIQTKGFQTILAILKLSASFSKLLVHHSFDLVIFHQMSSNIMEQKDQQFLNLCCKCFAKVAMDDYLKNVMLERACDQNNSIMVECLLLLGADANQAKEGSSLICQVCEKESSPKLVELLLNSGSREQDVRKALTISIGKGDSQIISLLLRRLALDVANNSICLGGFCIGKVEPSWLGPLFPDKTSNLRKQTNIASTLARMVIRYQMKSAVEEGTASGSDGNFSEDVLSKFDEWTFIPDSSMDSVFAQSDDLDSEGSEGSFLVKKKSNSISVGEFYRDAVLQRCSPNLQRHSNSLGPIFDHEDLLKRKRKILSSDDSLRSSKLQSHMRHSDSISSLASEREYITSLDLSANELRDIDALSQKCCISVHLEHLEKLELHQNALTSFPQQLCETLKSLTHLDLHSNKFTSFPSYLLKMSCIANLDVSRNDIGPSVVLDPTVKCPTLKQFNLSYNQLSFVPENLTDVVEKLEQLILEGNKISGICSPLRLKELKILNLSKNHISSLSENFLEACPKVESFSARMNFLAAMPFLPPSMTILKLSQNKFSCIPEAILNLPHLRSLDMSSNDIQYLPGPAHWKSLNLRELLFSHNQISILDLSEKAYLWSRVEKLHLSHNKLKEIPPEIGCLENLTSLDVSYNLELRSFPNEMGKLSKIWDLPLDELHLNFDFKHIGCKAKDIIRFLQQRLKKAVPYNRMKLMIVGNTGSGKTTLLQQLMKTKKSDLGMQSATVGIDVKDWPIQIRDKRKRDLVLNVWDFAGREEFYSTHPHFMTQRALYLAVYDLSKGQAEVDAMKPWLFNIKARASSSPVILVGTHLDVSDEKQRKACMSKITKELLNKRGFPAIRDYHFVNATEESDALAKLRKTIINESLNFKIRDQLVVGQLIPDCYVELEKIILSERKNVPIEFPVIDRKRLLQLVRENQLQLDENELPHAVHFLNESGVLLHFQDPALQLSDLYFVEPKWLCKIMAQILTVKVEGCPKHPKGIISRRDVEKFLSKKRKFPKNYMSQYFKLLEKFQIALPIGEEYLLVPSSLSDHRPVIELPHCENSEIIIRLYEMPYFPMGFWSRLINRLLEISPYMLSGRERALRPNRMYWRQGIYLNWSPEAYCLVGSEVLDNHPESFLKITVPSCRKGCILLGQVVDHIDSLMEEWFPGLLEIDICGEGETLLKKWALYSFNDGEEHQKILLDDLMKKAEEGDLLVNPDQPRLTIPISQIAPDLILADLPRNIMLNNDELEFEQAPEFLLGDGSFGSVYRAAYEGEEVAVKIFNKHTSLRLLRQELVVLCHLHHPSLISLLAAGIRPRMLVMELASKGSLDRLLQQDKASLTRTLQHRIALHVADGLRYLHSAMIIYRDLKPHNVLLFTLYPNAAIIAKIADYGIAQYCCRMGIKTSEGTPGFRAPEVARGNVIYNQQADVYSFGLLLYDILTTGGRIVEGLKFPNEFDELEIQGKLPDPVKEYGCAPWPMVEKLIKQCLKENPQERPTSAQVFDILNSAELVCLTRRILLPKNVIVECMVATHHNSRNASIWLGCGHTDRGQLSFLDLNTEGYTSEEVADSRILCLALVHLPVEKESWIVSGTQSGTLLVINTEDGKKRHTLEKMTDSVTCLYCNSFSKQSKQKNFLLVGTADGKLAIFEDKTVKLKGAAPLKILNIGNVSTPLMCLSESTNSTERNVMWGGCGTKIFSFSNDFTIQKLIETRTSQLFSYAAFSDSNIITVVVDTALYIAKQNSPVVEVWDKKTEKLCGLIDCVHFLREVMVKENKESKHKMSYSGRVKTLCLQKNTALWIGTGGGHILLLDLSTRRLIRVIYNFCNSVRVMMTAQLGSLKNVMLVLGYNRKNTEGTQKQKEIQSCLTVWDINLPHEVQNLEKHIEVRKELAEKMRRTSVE

[17] = tested on: Leucine-rich repeat serine/threonine-protein kinase 2 (Homo sapiens), Q5S007 [G2019S]; conditions: Compound concentration 1000.0 nM
Chain of Leucine-rich repeat serine/threonine-protein kinase 2 (Homo sapiens), Q5S007 [G2019S] (Q5S007 whole entry G2019S): as the sequence (Q5S007 whole entry) above, with G2019S counted along it

[18] = biological target: Homeodomain-interacting protein kinase 2 (Homo sapiens) (UniProt Q9H2X6); conditions: Compound concentration 1000.0 nM
[19] = biological target: 5'-AMP-activated protein kinase catalytic subunit alpha-2 (Homo sapiens) (UniProt P54646); conditions: Compound concentration 1000.0 nM
[20] = biological target: Ribosomal protein S6 kinase alpha-3 (Homo sapiens) (UniProt P51812); conditions: Compound concentration 1000.0 nM
[21] = biological target: Myosin-IIIb (Homo sapiens) (UniProt Q8WXR4); conditions: Compound concentration 1000.0 nM
Chain of Myosin-IIIb (Homo sapiens) (Q8WXR4 whole entry): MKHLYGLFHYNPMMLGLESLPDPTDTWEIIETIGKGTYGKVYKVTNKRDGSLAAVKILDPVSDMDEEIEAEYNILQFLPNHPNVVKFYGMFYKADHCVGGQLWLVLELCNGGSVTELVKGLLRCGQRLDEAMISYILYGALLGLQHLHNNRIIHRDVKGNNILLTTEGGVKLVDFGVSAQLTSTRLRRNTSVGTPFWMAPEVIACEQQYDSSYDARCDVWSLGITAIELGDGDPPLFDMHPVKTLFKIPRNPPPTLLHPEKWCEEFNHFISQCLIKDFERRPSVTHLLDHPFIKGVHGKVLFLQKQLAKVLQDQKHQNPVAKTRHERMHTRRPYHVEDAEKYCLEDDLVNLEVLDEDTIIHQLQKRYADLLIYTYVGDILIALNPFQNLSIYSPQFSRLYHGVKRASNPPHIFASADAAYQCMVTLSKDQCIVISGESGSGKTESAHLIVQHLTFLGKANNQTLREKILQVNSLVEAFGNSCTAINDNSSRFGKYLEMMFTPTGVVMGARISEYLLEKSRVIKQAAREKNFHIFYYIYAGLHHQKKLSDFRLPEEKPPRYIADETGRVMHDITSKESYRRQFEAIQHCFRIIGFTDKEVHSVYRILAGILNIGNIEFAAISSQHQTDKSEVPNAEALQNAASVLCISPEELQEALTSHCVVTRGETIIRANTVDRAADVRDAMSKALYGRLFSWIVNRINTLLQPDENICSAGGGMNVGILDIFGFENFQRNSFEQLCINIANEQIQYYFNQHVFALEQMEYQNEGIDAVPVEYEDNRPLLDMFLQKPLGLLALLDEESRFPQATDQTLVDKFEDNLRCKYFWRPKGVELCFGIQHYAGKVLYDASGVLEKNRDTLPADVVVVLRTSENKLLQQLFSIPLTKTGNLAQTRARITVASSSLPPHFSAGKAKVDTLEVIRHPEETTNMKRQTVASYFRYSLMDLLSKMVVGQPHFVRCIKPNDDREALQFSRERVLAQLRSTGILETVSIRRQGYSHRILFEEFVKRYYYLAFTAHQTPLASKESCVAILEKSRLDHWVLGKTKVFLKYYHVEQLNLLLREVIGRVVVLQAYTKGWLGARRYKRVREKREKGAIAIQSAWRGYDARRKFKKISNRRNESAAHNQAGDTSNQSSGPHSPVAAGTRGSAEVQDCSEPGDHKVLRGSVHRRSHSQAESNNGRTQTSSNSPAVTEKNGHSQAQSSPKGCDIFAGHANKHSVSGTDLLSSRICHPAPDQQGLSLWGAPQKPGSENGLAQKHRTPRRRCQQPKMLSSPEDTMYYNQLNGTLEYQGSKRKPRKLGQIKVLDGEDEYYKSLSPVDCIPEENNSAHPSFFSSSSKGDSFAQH

[22] = biological target: Muscarinic acetylcholine receptor M1 (Homo sapiens) (UniProt P11229); conditions: Compound concentration 10.0 uM
Chain of Muscarinic acetylcholine receptor M1 (Homo sapiens) (P11229 whole entry): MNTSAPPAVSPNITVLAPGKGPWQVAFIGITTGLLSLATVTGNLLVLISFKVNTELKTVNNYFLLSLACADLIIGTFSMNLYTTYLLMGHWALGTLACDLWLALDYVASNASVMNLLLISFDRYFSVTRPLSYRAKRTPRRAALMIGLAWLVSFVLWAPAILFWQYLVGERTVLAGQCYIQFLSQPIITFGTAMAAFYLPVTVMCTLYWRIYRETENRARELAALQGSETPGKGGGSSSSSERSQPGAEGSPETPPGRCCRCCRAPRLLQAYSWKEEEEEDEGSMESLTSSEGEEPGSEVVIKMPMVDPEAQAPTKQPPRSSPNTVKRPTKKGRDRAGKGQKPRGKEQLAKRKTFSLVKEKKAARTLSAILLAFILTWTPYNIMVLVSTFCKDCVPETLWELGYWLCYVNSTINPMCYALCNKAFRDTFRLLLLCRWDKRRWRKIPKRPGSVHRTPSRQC

[23] = biological target: Serine/threonine-protein kinase LATS2 (Homo sapiens) (UniProt Q9NRM7); conditions: Compound concentration 1000.0 nM
[24] = biological target: Inhibitor of nuclear factor kappa-B kinase subunit epsilon (Homo sapiens) (UniProt Q14164); conditions: Compound concentration 1000.0 nM
[25] = biological target: Serine/threonine-protein kinase 4 (Homo sapiens) (UniProt Q13043); conditions: Compound concentration 1000.0 nM
Chain of Serine/threonine-protein kinase 4 (Homo sapiens) (Q13043 whole entry): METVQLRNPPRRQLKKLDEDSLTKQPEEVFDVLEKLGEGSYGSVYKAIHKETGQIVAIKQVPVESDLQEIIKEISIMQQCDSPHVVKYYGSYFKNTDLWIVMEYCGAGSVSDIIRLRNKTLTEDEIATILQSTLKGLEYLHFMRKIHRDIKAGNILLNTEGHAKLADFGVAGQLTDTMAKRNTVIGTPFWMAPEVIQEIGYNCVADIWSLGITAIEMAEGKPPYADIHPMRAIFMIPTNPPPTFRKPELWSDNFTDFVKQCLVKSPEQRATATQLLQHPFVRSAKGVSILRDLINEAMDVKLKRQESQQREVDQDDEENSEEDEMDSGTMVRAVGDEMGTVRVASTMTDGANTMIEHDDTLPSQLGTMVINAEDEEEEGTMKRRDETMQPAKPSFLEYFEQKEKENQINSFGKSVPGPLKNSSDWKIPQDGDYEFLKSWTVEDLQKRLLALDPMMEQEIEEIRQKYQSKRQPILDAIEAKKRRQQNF

[26] = biological target: Serine/threonine-protein kinase 17A (Homo sapiens) (UniProt Q9UEE5); conditions: Compound concentration 1000.0 nM
[27] = biological target: Dual specificity protein kinase TTK (Homo sapiens) (UniProt P33981); conditions: Compound concentration 1000.0 nM
[28] = biological target: Serine/threonine-protein kinase VRK2 (Homo sapiens) (UniProt Q86Y07); conditions: Compound concentration 1000.0 nM
[29] = biological target: STE20-like serine/threonine-protein kinase (Homo sapiens) (UniProt Q9H2G2); conditions: Compound concentration 1000.0 nM
[30] = biological target: 5'-AMP-activated protein kinase catalytic subunit alpha-1 (Homo sapiens) (UniProt Q13131); conditions: Compound concentration 1000.0 nM
[31] = biological target: Mitogen-activated protein kinase kinase kinase 9 (Homo sapiens) (UniProt P80192); conditions: Compound concentration 1000.0 nM
[32] = biological target: 5-hydroxytryptamine receptor 2B (Homo sapiens) (UniProt P41595); conditions: Compound concentration 10.0 uM
[33] = biological target: Ephrin type-B receptor 6 (Homo sapiens) (UniProt O15197); conditions: Compound concentration 1000.0 nM
[34] = biological target: cGMP-dependent protein kinase 2 (Homo sapiens) (UniProt Q13237); conditions: Compound concentration 1000.0 nM
[35] = biological target: Serine/threonine-protein kinase 38 (Homo sapiens) (UniProt Q15208); conditions: Compound concentration 1000.0 nM
[36] = tested on: Tyrosine-protein kinase ABL1 (Homo sapiens), P00519 [T315I]; conditions: Compound concentration 1000.0 nM
[37] = tested on: Receptor-type tyrosine-protein kinase FLT3 (Homo sapiens), P36888 [UNDEFINED MUTATION]; conditions: Compound concentration 1000.0 nM
[38] = biological target: Ephrin type-B receptor 1 (Homo sapiens) (UniProt P54762); conditions: Compound concentration 1000.0 nM
[39] = biological target: Vascular endothelial growth factor receptor 3 (Homo sapiens) (UniProt P35916); conditions: Compound concentration 1000.0 nM
[40] = tested on: Tyrosine-protein kinase ABL1 (Homo sapiens), P00519 [M351T]; conditions: Compound concentration 1000.0 nM
[41] = biological target: Phosphatidylinositol 4,5-bisphosphate 3-kinase catalytic subunit beta isoform (Homo sapiens) (UniProt P42338); conditions: Compound concentration 1000.0 nM
[42] = biological target: Serine/threonine-protein kinase DCLK3 (Homo sapiens) (UniProt Q9C098); conditions: Compound concentration 1000.0 nM

Cc1c(C(=O)O)cc(-c2ccc(C3CCNCC3)cc2)c2ccc(-c3ccc(C(F)(F)F)cc3)cc12 [PPTN-NC]
inactive: residual activity [1] 100% | residual activity [2] 100% | residual activity [3] 100% | residual activity [4] 100% | residual activity [5] 100% | inhibition [6] 0.06% | residual activity [7] 100% | residual activity [8] 100% | residual activity [9] 100% | residual activity [10] 100% | inhibition [11] 12.6% | residual activity [12] 99% | residual activity [13] 100% | residual activity [14] 100% | residual activity [15] 73% | residual activity [16] 100% | residual activity [17] 100% | residual activity [18] 100% | residual activity [19] 100% | residual activity [20] 100% | residual activity [21] 75% | inhibition [22] 7.22% | residual activity [23] 100% | residual activity [24] 100% | residual activity [25] 95% | residual activity [26] 99% | residual activity [27] 100% | residual activity [28] 100% | residual activity [29] 100% | residual activity [30] 98% | residual activity [31] 92% | inhibition [32] 6.6% | residual activity [33] 100% | residual activity [34] 71% | residual activity [35] 84% | residual activity [36] 82% | residual activity [37] 100% | residual activity [38] 100% | residual activity [39] 100% | residual activity [40] 100% | residual activity [41] 100% | residual activity [42] 100%

O=C(O)c1cc(-c2ccc(C3CCNCC3)cc2)c2ccc(-c3ccc(C(F)(F)F)cc3)cc2c1 [PPTN]
inactive: residual activity [1] 100% | residual activity [2] 100% | residual activity [3] 100% | residual activity [4] 100% | residual activity [5] 100% | inhibition [6] 9.47% | residual activity [7] 100% | residual activity [8] 87% | residual activity [9] 90% | residual activity [10] 100% | inhibition [11] 21.6% | residual activity [12] 100% | residual activity [13] 100% | residual activity [14] 100% | residual activity [15] 80% | residual activity [16] 100% | residual activity [17] 100% | residual activity [18] 100% | residual activity [19] 100% | residual activity [20] 100% | residual activity [21] 69% | inhibition [22] 4.16% | residual activity [23] 100% | residual activity [24] 100% | residual activity [25] 98% | residual activity [26] 100% | residual activity [27] 100% | residual activity [28] 100% | residual activity [29] 100% | residual activity [30] 100% | residual activity [31] 100% | inhibition [32] 7.95% | residual activity [33] 96% | residual activity [34] 79% | residual activity [35] 83% | residual activity [36] 74% | residual activity [37] 100% | residual activity [38] 100% | residual activity [39] 100% | residual activity [40] 100% | residual activity [41] 100% | residual activity [42] 100%
